Data taken from patent US10111874B2, “Combination therapies for treatment of cancer” (Araxes Pharma LLC, priority 2014, dated 2018).

target: T1, KRAS G12C 1-169, his-tagged protein, GDP-loaded (Homo sapiens, UniProt P01116, G12C); test: Biochemical assay: covalent binding to KRAS G12C analyzed by mass spectrometry; settings: compounds 1-47, measured at 24 h; note: test concentration or dose not given here
T1 construct: KRAS G12C 1-169, his-tagged protein, GDP-loaded
T1 sequence (P01116 1-169 isoform P01116-2 G12C): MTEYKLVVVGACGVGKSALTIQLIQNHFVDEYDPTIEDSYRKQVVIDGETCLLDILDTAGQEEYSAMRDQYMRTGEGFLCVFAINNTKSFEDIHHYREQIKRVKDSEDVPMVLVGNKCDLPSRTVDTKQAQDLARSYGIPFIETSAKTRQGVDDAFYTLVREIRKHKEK

Row | Compound | Binding %
1 | C=CC(=O)N1CCN(c2nccc3cc(Cl)c(-c4ccccc4Cl)cc23)CC1 [Compound I-24, 1-(4-(6-chloro-7-(2-chlorophenyl)isoquinolin-1-yl)piperazin-1-yl)prop-2-en-1-one] | + (+indicates binding activity from 5% to 25%)
2 | C=CC(=O)N1CCN(c2ncnc3cc(Cl)c(-c4ccc(C#N)cc4)cc23)CC1 [Compound I-16, 4-(4-(4-acryloylpiperazin-1-yl)-7-chloroquinazolin-6-yl)benzonitrile] | ++ (++indicates binding activity greater than 25% and up to 50%)
3 | C=CC(=O)N1CCN(c2ncnc3cc(Cl)c(-c4ccc(Cl)s4)cc23)CC1 [Compound I-34, 1-(4-(7-chloro-6-(5-chlorothiophen-2-yl)quinazolin-4-yl)piperazin-1-yl)prop-2-en-1-one] | +++ (+++indicates binding activity greater than 50% and up to 75%)
4 | C=CC(=O)N1CCN(c2ncnc3cc(Cl)c(-c4cccnc4)cc23)CC1 [Compound I-20, 1-(4-(7-chloro-6-(pyridin-3-yl)quinazolin-4-yl)piperazin-1-yl)prop-2-en-1-one] | + (+indicates binding activity from 5% to 25%)

same assay, conditions: compounds 48-246, measured at 2 h

Row | Compound | Binding %
5 | C=CC(=O)N1CCN(c2c(C#N)cnc3c(F)c(-c4ccccc4F)c(Cl)cc23)CC1 [Compound I-242, 4-(4-acryloylpiperazin-1-yl)-6-chloro-8-fluoro-7-(2-fluorophenyl)quinoline-3-carbonitrile] | ++++ (++++indicates binding activity greater than 75%)
6 | C=CC(=O)N1CCN(c2ncnc3cc(-c4ccc(F)cc4F)c(C(F)(F)F)cc23)CC1 [Compound I-204, 1-(4-(7-(2,4-difluorophenyl)-6-(trifluoromethyl)quinazolin-4-yl)piperazin-1-yl)prop-2-en-1-one] | +++ (+++indicates binding activity greater than 50% and up to 75%)
7 | C=CC(=O)N1CCN(c2ncnc3cc(-c4ccc(F)cc4F)c(Cl)cc23)CC1CC#N (centres unmarked) [Compound I-139, 2-(1-acryloyl-4-(6-chloro-7-(2,4-difluorophenyl)quinazolin-4-yl)piperazin-2-yl)acetonitrile] | ++++ (++++indicates binding activity greater than 75%)
8 | C=CC(=O)N1CCN(c2ncnc3cc(-c4ccccc4)ccc23)CC1 [Compound I-87] | + (+indicates binding activity from 5% to 25%)
9 | C=CC(=O)N1CCN(c2ncnc3cc(-c4ccc(F)cc4F)c(Cl)cc23)CC1 [Compound I-112, 1-(4-(6-chloro-7-(2,4-difluorophenyl)quinazolin-4-yl)piperazin-1-yl)prop-2-en-1-one] | +++ (+++indicates binding activity greater than 50% and up to 75%)
10 | C=CC(=O)N1CCN(c2ncnc3cc(-c4cc(F)ccc4C(N)=O)c(Cl)cc23)CC1 [Compound I-197, 2-(4-(4-acryloylpiperazin-1-yl)-6-chloroquinazolin-7-yl)-4-fluorobenzamide] | ++ (++indicates binding activity greater than 25% and up to 50%)
11 | C=CC(=O)N1CCN(c2ncnc3cc(Cl)c(-c4ccc(Cl)cc4)cc23)CC1CCO (centres unmarked) [Compound I-62, 1-(4-(7-chloro-6-(4-chlorophenyl)quinazolin-4-yl)-2-(2-hydroxyethyl)piperazin-1-yl)prop-2-en-1-one] | + (+indicates binding activity from 5% to 25%)
12 | C=CC(=O)N1CCN(c2ncnc3cc(-c4cc(C5(C#N)CC5)ccc4F)c(Cl)cc23)CC1 [Compound I-143, 1-(3-(4-(4-acryloylpiperazin-1-yl)-6-chloroquinazolin-7-yl)-4-fluorophenyl)cyclopropanecarbonitrile] | +++ (+++indicates binding activity greater than 50% and up to 75%)
13 | C=CC(=O)N1CCN(c2ncnc3cc(-c4ccccc4O)c(Cl)cc23)CC1C (centres unmarked) [Compound I-134, 1-(4-(6-chloro-7-(2-hydroxyphenyl)quinazolin-4-yl)-2-methylpiperazin-1-yl)prop-2-en-1-one] | ++ (++indicates binding activity greater than 25% and up to 50%)
14 | C=CC(=O)N1CCN(c2ncnc3cc(-c4ccccc4C4(C)CC4)c(Cl)cc23)CC1 [Compound I-222, 1-(4-(6-chloro-7-(2-(1-methylcyclopropyl)phenyl)quinazolin-4-yl)piperazin-1-yl)prop-2-en-1-one] | +++ (+++indicates binding activity greater than 50% and up to 75%)
15 | C=CC(=O)N1CCN(c2ncnc3cc(-c4cccc5c4CCCN5)c(Cl)cc23)CC1 [Compound I-223, 1-(4-(6-chloro-7-(1,2,3,4-tetrahydroquinolin-5-yl)quinazolin-4-yl)piperazin-1-yl)prop-2-en-1-one] | + (+indicates binding activity from 5% to 25%)
16 | C=CC(=O)N1CCN(c2ncnc3cc(-c4cccc(C#N)c4)c(Cl)cc23)CC1 [Compound I-130, 3-(4-(4-acryloylpiperazin-1-yl)-6-chloroquinazolin-7-yl)benzonitrile] | + (+indicates binding activity from 5% to 25%)
17 | C=CC(=O)N1CCN(c2ncnc3cc(-c4cc(Cl)ccc4Cl)c(Cl)cc23)CC1 [Compound I-101, 1-(4-(6-chloro-7-(2,5-dichlorophenyl)quinazolin-4-yl)piperazin-1-yl)prop-2-en-1-one] | +++ (+++indicates binding activity greater than 50% and up to 75%)
18 | C=CC(=O)N1CCN(c2ncnc3cc(-c4ccccc4CC(N)=O)c(Cl)cc23)CC1 [Compound I-161, 2-(2-(4-(4-acryloylpiperazin-1-yl)-6-chloroquinazolin-7-yl)phenyl)acetamide] | ++ (++indicates binding activity greater than 25% and up to 50%)
19 | C=CC(=O)N1CCN(c2ncnc3cc(-c4ccccc4C4(C(N)=O)CC4)c(Cl)cc23)CC1 [Compound I-176, 1-(2-(4-(4-acryloylpiperazin-1-yl)-6-chloroquinazolin-7-yl)phenyl)cyclopropanecarboxamide] | +++ (+++indicates binding activity greater than 50% and up to 75%)
20 | C=CC(=O)N1CCN(c2ncnc3cc(-c4ccc5[nH]ncc5c4)c(Cl)cc23)CC1 [Compound I-144, 1-(4-(6-chloro-7-(1H-indazol-5-yl)quinazolin-4-yl)piperazin-1-yl)prop-2-en-1-one] | + (+indicates binding activity from 5% to 25%)
21 | C=CC(=O)N1CCN(c2ncnc3cc(-c4ccccc4CC)c(Cl)cc23)CC1CC#N (centres unmarked) [Compound I-107, 2-(1-acryloyl-4-(6-chloro-7-(2-ethylphenyl)quinazolin-4-yl)piperazin-2-yl)acetonitrile] | ++++ (++++indicates binding activity greater than 75%)
22 | C=CC(=O)N1CCN(c2ncnc3cc(-c4ccccn4)c(Cl)cc23)CC1 [Compound I-92, 1-(4-(6-chloro-7-(pyridin-2-yl)quinazolin-4-yl)piperazin-1-yl)prop-2-en-1-one] | + (+indicates binding activity from 5% to 25%)

same assay, conditions: compounds 247-342, measured at 30 min

Row | Compound | Binding %
23 | C=CC(=O)N1CCN(c2ncnc3c(F)c(-c4c(F)ccc5[nH]ncc45)c(Cl)cc23)CC1 [Compound 331, 1-(4-(6-chloro-8-fluoro-7-(5-fluoro-1H-indazol-4-yl)quinazolin-4-yl)piperazin-1-yl)prop-2-en-1-one] | ++ (++indicates binding activity greater than 25% and up to 50%)
24 | C=CC(=O)N1CCN(c2c(C#N)cnc3c(F)c(-c4c(C)ccc5[nH]ncc45)c(Cl)cc23)CC1C (centres unmarked) [Compound 336, 4-(4-acryloyl-3-methylpiperazin-1-yl)-6-chloro-8-fluoro-7-(5-methyl-1H-indazol-4-yl)quinoline-3-carbonitrile] | +++ (+++indicates binding activity greater than 50% and up to 75%)
25 | C=CC(=O)N1CCN(c2nc(OCCCN(C)C)nc3c(F)c(-c4c(C)ccc5[nH]ncc45)c(Cl)cc23)CC1 [Compound 339, 1-(4-(6-chloro-2-(3-(dimethylamino)propoxy)-8-fluoro-7-(5-methyl-1H-indazol-4-yl)quinazolin-4-yl)piperazin-1-yl)prop-2-en-1-one] | ++++ (++++indicates binding activity greater than 75%)

same assay, conditions: determined at 2 hrs

Row | Compound | Binding %
26 | C=CC(=O)N1CC(N2CCN(C(=O)CNc3cc(C4CC4(F)F)c(Cl)cc3O)CC2)C1 (centres unmarked) [II-56, 1-(3-(4-((4-chloro-5-(2,2-difluorocyclopropyl)-2-hydroxyphenyl)glycyl)piperazin-1-yl)azetidin-1-yl)prop-2-en-1-one] | ++ (++indicates binding activity greater than 20%)
27 | C=CC(=O)N1CC(N2CCN(C(=O)CNc3cc(C(C)C)c(Cl)cc3O)CC2)C1 [II-50, 1-(3-(4-(2-(4-Chloro-2-hydroxy-5-isopropylphenylamino)acetyl)piperazin-1-yl)azetidin-1-yl)prop-2-en-1-one] | ++ (++indicates binding activity greater than 20%)
28 | C=CC(=O)N1CC(N2CCN(C(=O)CNc3cc(CC(F)(F)F)c(Cl)cc3O)CC2)C1 [II-57, 1-(3-(4-(2-((4-Chloro-2-hydroxy-5-(2,2,2-trifluoroethyl)phenyl)amino)acetyl)piperazin-1-yl)azetidin-1-yl)prop-2-en-1-one] | ++ (++indicates binding activity greater than 20%)
29 | C=CC(=O)N1CC(N2CCN(c3cc(-c4cc(CC)c(Cl)cc4O)n[nH]3)CC2)C1 [II-72, 1-(3-(4-(3-(4-chloro-5-ethyl-2-hydroxyphenyl)-1H-pyrazol-5-yl)piperazin-1-yl)azetidin-1-yl)prop-2-en-1-one] | + (+indicates binding activity from 5% to 20%)

same assay, conditions: determined at 24 hrs

Row | Compound | Binding %
30 | C=CC(=O)N1CC(N2CCN(C(=O)CNc3cc(C)c(Cl)cc3O)CC2)C1 [II-32, 1-(3-(4-(2-(4-chloro-2-hydroxy-5-methylphenylamino)-acetyl)piperazin-1-yl)azetidin-1-yl)prop-2-en-1-one] | ++++ (++++indicates binding activity greater than 50%)
31 | C=CC(=O)N1CC(N2CCN(C(=O)CNc3cc4ccccc4cc3O)CC2)C1 [II-43, 1-(3-(4-(2-(3-hydroxynaphthalen-2-ylamino)acetyl)-piperazin-1-yl)azetidin-1-yl)prop-2-en-1-one] | ++++ (++++indicates binding activity greater than 50%)
32 | C=CC(=O)N1CC(N2CCN(C(=O)CNc3cc(C(F)(F)F)c(Cl)cc3OC)CC2)C1 [II-37, 1-(3-(4-(2-(4-chloro-2-methoxy-5-(trifluoromethyl)-phenylamino)acetyl)-piperazin-1-yl)azetidin-1-yl)prop-2-en-1-one] | ++ (++indicates binding activity greater than 15% and up to 25%)
